# Source: PMC12395807, “Chemoreceptor family in plant-associated bacteria responds preferentially to the plant signal molecule glycerol 3-phosphate” (Genome Biology, 2025)
# How the values were obtained:
# [1] = system: Pectobacterium atrosepticum SCRI1043; assay: Growth experiment, sole carbon source; assay type: cell-based; conditions: PFM9 minimal medium, 5 mM ligand, 30 °C, 48 h
# Procedure: (§1) P. atrosepticum SCRI1043 was cultured overnight in phosphate-free M9-based medium (PFM9) supplemented with 20 mM glucose as the carbon source and 500 µM inorganic phosphate as the phosphate source. Cultures were washed and then diluted to an OD600 of 0.02 in PFM9 supplemented with different PacP ligands as the sole carbon or phosphorous source at a final concentration of 5 mM. Subsequently, 200 µL aliquots of these cultures were transferred into microwell plates, which were subsequently grown at 30 °C on a Bioscreen microbiological growth analyzer (Oy Growth Curves Ab Ltd., Helsinki, Finland) for 48 h.
# [2] = biological target: ligand binding domain of the chemoreceptor ECA_RS12390 (PacP-LBD, R1, WP_011094075.1) (Pectobacterium atrosepticum, UniProt Q6D464); assay: ITC binding to PacP-LBD; conditions: 15 °C, Nb = no binding
# Procedure: (§2) Plasmids for the overexpression of the different proteins were transformed into E. coli BL21(DE3). The resulting strains were grown under continuous stirring (200 rpm) at 30 °C in 2-L Erlenmeyer flasks containing 500 mL of LB medium supplemented with 50 μg/mL kanamycin. At an OD660 of 0.5, protein expression was induced by the addition of 0.1 mM isopropyl β-D-1-thiogalactopyranoside. Growth was continued at 16 °C overnight prior to cell harvesting by centrifugation at 10,000 × g for 20 min. Cell pellets were resuspended in buffer A (Additional file 2: Table S4) and subsequently broken by French press treatment at 62.5 lb/in^2. After centrifugation at 20,000 × g for 30 min, the supernatants were loaded onto 5-mL HisTrap HP columns (Amersham Biosciences) equilibrated with buffer A, and the proteins were eluted with a linear gradient of buffer B (Additional file 2: Table S4). All proteins contain a hexa-histidine tag at the N-terminal extension (Additional file 2: Table S3) and were purified at 4 °C. The purified proteins were dialyzed overnight into the corresponding analysis buffers (Additional file 2: Table S4) for immediate analysis.
# (§3) All experiments were conducted on a VP microcalorimeter (Microcal, MA) at 15 °C for PacP-LBD and at 20 °C for the remaining proteins. Proteins were dialyzed into the analysis buffers specified in Additional file 2: Table S4, placed into the sample cell and titrated with aliquots of ligand solutions (1 to 10 mM) freshly prepared in dialysis buffer. The mean enthalpies measured from the injection of the ligands into the analysis buffer were subtracted from the raw titration data prior to data analysis with the MicroCal version of ORIGIN. The data were fitted with the “One binding site model” of ORIGIN.
# [3] = system: P. atrosepticum SCRI1043 pacP mutant (MpacP); assay: Quantitative capillary chemotaxis assay, pacP mutant; assay type: cell-based, Pectobacterium atrosepticum; conditions: 1 mM ligand
# Source text: A mutant defective in ECA_RS12390 was constructed by homologous recombination using a derivative plasmid of the suicide vector pKNG101. Briefly, a 0.5-kb fragment corresponding to the region encoding the LBD of ECA_RS12390 was amplified by the primers specified in Additional file 2: Table S2 and cloned into pGEM®-T. The resulting plasmid pGEM::ECA_RS12390 was digested with XmaI, and the 0.5-kb insert was cloned into the same site at pKNG101 to generate pKNG101::ECA_RS12390. This plasmid was subsequently transformed into P. atrosepticum SRCI1043 via biparental conjugation using E. coli β2163. All the plasmids were verified by PCR and sequencing. The pETb(+) derivatives encoding the LBD of the different receptors analyzed in this study (Table 1) were purchased from GeneScript. Plasmid pBBR-ECA_RS12390 was constructed by amplifying the pacP gene using the primers detailed in Additional file 2: Table S2 and cloning of the PCR product into the NdeI/BamHI sites of pBBR1MCS2_START. The sequences of the proteins analyzed in this study are provided in Additional file 2: Table S3. The ECA_RS12390 nucleotide sequence is available in the published genome of P. atrosepticum SCRI1043 [60].
# (§4) Overnight cultures of P. atrosepticum SCRI1043 were grown at 30 °C in minimal medium. At an OD660 of 0.4–0.45, the cultures were washed twice with chemotaxis buffer (50 mM K2HPO4/KH2PO4, 20 μM EDTA, 0.05% (v/v) glycerol, pH 7.0) and diluted to an OD660 of 0.1 in the same buffer. Subsequently, 230 μL of the resulting bacterial suspension was placed into the wells of 96-well plates. One-microliter capillary tubes (P1424, Microcaps; Drummond Scientific) were heat-sealed at one end and filled with either chemotaxis buffer (negative control) or chemotaxis buffer containing PacP ligands at a concentration of 1 mM. The capillaries were immersed in the bacterial suspensions at their open ends. After 30 min at room temperature, the capillaries were removed from the bacterial suspensions, rinsed with sterile water, and the contents were expelled into 1 mL of 40 mM K2HPO4, 15 mM KH2PO4. Serial dilutions were plated onto minimal medium supplemented with 15 mM glucose as the carbon source. The number of colony-forming units was determined after 36 h of incubation at 30 °C. In all the cases, the data were corrected with the number of cells that swam into the buffer-containing capillaries.
# [4] = biological target: LBD of chemoreceptor R9 (WP_189529961.1) (Paludibacterium paludis, UniProt A0A918NWY2); assay: ITC binding to R9-LBD; conditions: 20 °C, Nb = no binding
# Procedure: as §2, §3
# [5] = system: Pectobacterium atrosepticum SCRI1043; assay: Growth experiment, sole phosphorus source; assay type: cell-based; conditions: PFM9 minimal medium, 5 mM ligand, 30 °C, 48 h
# Procedure: as §1
# [6] = biological target: LBD of chemoreceptor R4 (WP_158281851.1) (Rivihabitans pingtungensis, UniProt A0A318KJN4); assay: ITC binding to R4-LBD; design: species or system Rivicola pingtungensis; conditions: 20 °C, Nb = no binding
# Procedure: as §2, §3
# [7] = biological target: LBD of chemoreceptor R5 (WP_028444678.1); assay: ITC binding to R5-LBD; design: species or system Chitinimonas koreensis; conditions: 20 °C, Nb = no binding
# Procedure: as §2, §3
# [8] = system: PacP-LBD mutant (Y86, H100, R105, Y121, K148 and Y167 replaced by alanine); assay: ITC binding to PacP-LBD binding site motif mutant; design: species or system Pectobacterium atrosepticum; conditions: 36 μM PacP-LBD alanine mutant; 1 mM glycerol 3-phosphate, 2.5 mM glyceraldehyde 3-phosphate
# Procedure: as §2, with “The purified proteins were dialyzed overnight into the corresponding analysis buffers (Additional file 2: Table S4) for immediate analysis.” left out
# All experiments were conducted on a VP microcalorimeter (Microcal, MA) at 15 °C for PacP-LBD and at 20 °C for the remaining proteins. […] The mean enthalpies measured from the injection of the ligands into the analysis buffer were subtracted from the raw titration data prior to data analysis with the MicroCal version of ORIGIN. […]
# [9] = ITC binding to R7-LBD; design: species or system Methyloversatilis discipulorum; conditions: 20 °C, Nb = no binding
# Procedure: as §2, §3
# [10] = system: P. atrosepticum SCRI1043; assay: Quantitative capillary chemotaxis assay, wild type; assay type: cell-based, Pectobacterium atrosepticum; conditions: wild type SCRI1043, 1 mM ligand, 30 min
# Procedure: as §4
# [11] = biological target: LBD of chemoreceptor R6 (WP_174062248.1); assay: ITC binding to R6-LBD; design: species or system Agrobacterium larrymoorei; conditions: 20 °C, Nb = no binding
# Procedure: as §2, §3
# [12] = biological target: LBD of chemoreceptor R10 (WP_028866120.1); assay: ITC binding to R10-LBD; design: species or system Psychromonas aquimarina; conditions: 20 °C, Nb = no binding
# Procedure: as §2, §3
# [13] = biological target: LBD of chemoreceptor R3 (WP_006464688.1) (Herbaspirillum frisingense, UniProt A0ABU1PC34); assay: ITC binding to R3-LBD; conditions: 20 °C, Nb = no binding
# Procedure: as §2, §3
# LBD of chemoreceptor R9 (WP_189529961.1), sequence (A0A918NWY2 entry or part of it): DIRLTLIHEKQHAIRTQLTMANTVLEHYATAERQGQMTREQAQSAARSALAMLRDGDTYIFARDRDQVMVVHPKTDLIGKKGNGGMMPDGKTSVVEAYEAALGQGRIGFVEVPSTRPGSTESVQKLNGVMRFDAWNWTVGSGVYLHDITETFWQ
# LBD of chemoreceptor R4 (WP_158281851.1), sequence (A0A318KJN4 entry or part of it): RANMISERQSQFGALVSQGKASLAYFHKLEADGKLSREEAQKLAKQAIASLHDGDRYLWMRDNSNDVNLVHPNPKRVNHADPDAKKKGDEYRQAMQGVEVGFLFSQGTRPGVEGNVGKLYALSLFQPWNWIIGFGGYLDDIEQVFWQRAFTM
# LBD of chemoreceptor R3 (WP_006464688.1), sequence (A0ABU1PC34 entry or part of it): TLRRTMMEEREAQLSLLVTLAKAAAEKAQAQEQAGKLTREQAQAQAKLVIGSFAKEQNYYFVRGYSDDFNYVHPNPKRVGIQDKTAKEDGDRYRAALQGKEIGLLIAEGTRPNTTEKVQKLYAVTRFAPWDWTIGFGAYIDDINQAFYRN
# ligand binding domain of the chemoreceptor ECA_RS12390 (PacP-LBD, R1, WP_011094075.1), sequence (Q6D464 entry or part of it): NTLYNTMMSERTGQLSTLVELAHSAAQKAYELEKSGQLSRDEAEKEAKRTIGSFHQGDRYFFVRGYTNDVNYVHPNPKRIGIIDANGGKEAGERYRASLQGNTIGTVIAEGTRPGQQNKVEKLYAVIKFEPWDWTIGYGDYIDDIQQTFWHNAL
smiles,measurement,setting,value
O=CC(O)COP(=O)(O)O (stereo not shown) [glyceraldehyde 3-phosphate],growth as sole carbon source,[1],devoid of apparent metabolic value
same,Kd,[2],58 ± 2 µM
same,chemotaxis (capillary assay),[3],Only glycerol 2-phosphate served as an attractant for the mutant
same,KD,[4],Nb
same,growth as sole phosphorus source,[5],devoid of apparent metabolic value
same,Kd,[6],100 ± 2 µM
same,KD,[7],Nb
same,binding in microcalorimetric titration,[8],absence of binding
same,Kd,[9],126 ± 9 µM
same,chemotaxis (capillary assay),[10],Modest chemoattraction
same,KD,[11],Nb
same,KD,[12],Nb
same,KD,[13],Nb
